We go through 26 molecules from patent publication US11771702B2, “Agonists of PPAR-δ” (priority 2018, dated 2023).

In general, EC50 refers to the concentration needed to bring the measured effect to its halfway point.

Molecules are shown by their SMILES. Where two headings read alike, the source gives them in different places.

Test [1] addresses T1, PPAR-α (Homo sapiens, UniProt Q07869).
T1 construct: hPPARα/LBD encoding amino acids 175-468; expressed in transfected cells; host or cells: HEK293T
T1 sequence (Q07869 175-468): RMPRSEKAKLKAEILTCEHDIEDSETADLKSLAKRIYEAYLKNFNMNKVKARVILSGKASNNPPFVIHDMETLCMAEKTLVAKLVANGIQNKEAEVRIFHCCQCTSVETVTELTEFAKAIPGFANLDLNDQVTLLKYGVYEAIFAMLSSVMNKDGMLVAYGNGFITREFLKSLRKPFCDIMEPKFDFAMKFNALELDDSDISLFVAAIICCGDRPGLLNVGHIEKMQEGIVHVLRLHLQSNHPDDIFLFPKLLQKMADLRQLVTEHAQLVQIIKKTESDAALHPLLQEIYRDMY
Description: GAL4-DBD/PPAR-LBD luciferase reporter agonist assay in HEK293T cells, PPAR-α. The test is classed as cell-based. As for the experimental part:
(§1) Measuring molecular agonist activities—a GAL4-DNA Binding Domain (GAL4-DBD) fusion protein was constructed for each PPAR family member. To assess compound activity, each construct was co-transfected into HEK293T cells (American Type Culture Collection; Manassas, Va.) along with the reporter construct, pGL5 (Promega) using Fugene 6 (Promega) as a transfection reagent and the manufacturer's protocol. An eleven-point dilution series of each compound was added to the cells and incubated overnight. Luciferase levels were then determined following the addition of Bright-Glo (Promega) using the manufacturer's recommendations.

The target of test [2] is T2, PPAR-δ (Homo sapiens, UniProt Q03181).
T2 construct: hPPARδ/LBD encoding amino acids 147-441; expressed in transfected cells; host or cells: HEK293T
T2 sequence (Q03181 147-441): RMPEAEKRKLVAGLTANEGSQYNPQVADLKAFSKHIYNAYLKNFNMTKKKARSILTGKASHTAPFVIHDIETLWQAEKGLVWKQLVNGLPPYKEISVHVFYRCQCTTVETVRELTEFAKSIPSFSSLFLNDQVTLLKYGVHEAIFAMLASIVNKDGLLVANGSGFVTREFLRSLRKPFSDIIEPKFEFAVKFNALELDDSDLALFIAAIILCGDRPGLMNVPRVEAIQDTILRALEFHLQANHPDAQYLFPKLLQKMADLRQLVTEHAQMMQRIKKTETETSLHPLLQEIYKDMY
Description: GAL4-DBD/PPAR-LBD luciferase reporter agonist assay in HEK293T cells, PPAR-δ. The note with it: for PPAR subtype selectivity: PPAR-δ vs PPAR-α and PPAR-γ. Format: cell-based. As for the experimental part: as §1
In general terms: Reporter assays use an easily measured gene product as a stand-in for the process of interest.

For test [3], the target named is T3, PPAR-γ (Homo sapiens, UniProt P37231).
T3 construct: hPPARγ/LBD encoding amino acids 184-477; expressed in transfected cells; host or cells: HEK293T
T3 sequence (P37231 184-477 isoform P37231-2): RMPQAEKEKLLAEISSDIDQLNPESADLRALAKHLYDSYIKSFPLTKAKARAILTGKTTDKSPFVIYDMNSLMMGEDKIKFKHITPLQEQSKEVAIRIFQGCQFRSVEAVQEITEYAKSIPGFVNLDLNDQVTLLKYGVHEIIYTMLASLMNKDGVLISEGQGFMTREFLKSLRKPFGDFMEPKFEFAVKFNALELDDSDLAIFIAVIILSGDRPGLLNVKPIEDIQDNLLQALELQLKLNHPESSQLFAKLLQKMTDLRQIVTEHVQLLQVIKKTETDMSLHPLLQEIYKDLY
Put plainly: GAL4-DBD/PPAR-LBD luciferase reporter agonist assay in HEK293T cells, PPAR-γ. The test is classed as cell-based. As for the experimental part: as §1

The target of test [4] is T4, PPAR-δ (Homo sapiens, UniProt Q03181).
T4 sequence (Q03181 1-441): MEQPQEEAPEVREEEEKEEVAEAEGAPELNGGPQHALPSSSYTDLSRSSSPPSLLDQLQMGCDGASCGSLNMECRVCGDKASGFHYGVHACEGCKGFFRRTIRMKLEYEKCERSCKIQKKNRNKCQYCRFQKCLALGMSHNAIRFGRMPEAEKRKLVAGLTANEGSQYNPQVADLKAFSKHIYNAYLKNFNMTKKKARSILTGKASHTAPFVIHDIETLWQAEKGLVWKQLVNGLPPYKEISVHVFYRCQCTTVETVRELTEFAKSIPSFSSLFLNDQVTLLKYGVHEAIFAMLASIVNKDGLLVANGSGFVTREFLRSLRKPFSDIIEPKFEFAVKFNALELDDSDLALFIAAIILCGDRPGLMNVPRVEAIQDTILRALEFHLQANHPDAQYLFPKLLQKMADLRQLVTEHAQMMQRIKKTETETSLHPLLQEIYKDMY
The conditions noted are these: ligand of the PDB complex, published EC50; cited from earlier work.

[5] abbreviates: Table 10 (PPAR-δ), read-out: PPAR-δ EC50.

Turning to `Cc1cc(C(=O)COC(=O)c2ccc(O)cc2O)c(C)n1Cc1ccc(F)cc1` [GNF-9969], the EC50 in test [1] (Table 10) is 6.94 µM; in test [2] (Table 10) it was 9.48 µM; in test [3] (setting [5]), 1.01 µM.
Regarding `O=C(OCC(=O)c1ccc(O)cc1O)c1ccc(COc2ccc3ccccc3c2)o1` [GNF-6928], the values for the EC50 in test [1] (Table 10), in test [2] (Table 10) and in test [3] (setting [5]) were 6.9 µM, 3.7 µM and 3.78 µM, respectively.
For the molecule `CCCOc1c(/C=C/C(=O)c2ccc(SCC(=O)O)c(OC)c2)cccc1OCC` [GNF-1676], the EC50 in test [1] (Table 10) was 6.2 µM; in test [2] (Table 10), 8.39 µM; in test [3] (setting [5]) it was 1.29 µM.
For `Cc1ccc(C(=O)Nc2cccc(CNCc3ccc(OC(F)(F)F)cc3)c2)cc1` [GNF-0341], the “PPAR subtype selectivity” value in test [2] was “agonists of PPAR-δ and PPAR-γ only”. Also, the EC50 is 0.011 µM in test [2] (Table 9) and 1.26 µM in test [3] (Table 9, read-out: PPAR-γ EC50).
As to `O=[N+]([O-])c1cc(S(=O)(=O)N2CCCC2)ccc1OCC(O)CNCc1ccc(F)cc1` (stereo not shown) [GNF-9594], the EC50 in test [2] (Table 10) came to 4.6 µM.
Consider `CC/C=C\C/C=C\C/C=C\C/C=C\C/C=C\CCCC(=O)O` [3GXW], for which the EC50 in test [4] is 4 µM.
Regarding `Cc1cc(C(=O)COc2ccc(C(=O)O)cc2)c(C)n1CCC1=CCCCC1` [GNF-9057], the EC50 was determined as 4.63 µM in test [1] (Table 10), 7.49 µM in test [2] (Table 10) and 8.6 µM in test [3] (setting [5]).
As for `COc1ccc(C(=O)/C=C/c2c(C)nn(-c3ccccc3)c2Cl)cc1CSCC(=O)O` [GNF-4909], the EC50 in test [1] (Table 10) was determined as 0.825 µM; in test [2] (Table 10), 8.24 µM; in test [3] (setting [5]), 1.83 µM.
Take `O=C(NCCCCOc1ccc(F)cc1)c1ccc([N+](=O)[O-])c(O)c1` [GNF-7176]: the EC50 in test [2] (Table 10) turned out to be 7.24 µM.
Turning to `CCOc1cc(/C=C/C(=O)O)ccc1OCc1ccc(C(C)(C)C)cc1` [GNF-4516], the results for the EC50 in test [1] (Table 10) and in test [2] (Table 10) were 2.33 µM and 6.82 µM, respectively.
For the molecule `COc1ccc(N2CCN(C(=O)CSc3nnc(COc4ccc(Cl)cc4C)[nH]3)CC2)cc1` [GNF-7486], in test [2] (Table 9), the EC50 came to 0.018 µM.
As for `COCCCn1c(SCc2cccc(C(=O)O)c2)nc2sc3c(c2c1=O)CCCS3` [GNF-5154], the EC50 is greater than 10 µM in test [1] (Table 10), 7.04 µM in test [2] (Table 10) and greater than 10 µM in test [3] (setting [5]).
As to `COc1cc(/C=C2/S/C(=N/c3ccccc3)NC2=O)ccc1OCc1cccc(C(=O)O)c1` [GNF-5758], the EC50 in test [1] (Table 10) is 6.93 µM; in test [2] (Table 10) it was 4.33 µM; in test [3] (setting [5]) it was 9.73 µM.
As for `CC(C(=O)Nc1ccc(SC(F)F)cc1)N1CC=C(c2ccc(O)cc2)CC1` (stereo not shown) [GNF-8208], the concentration for a half-maximal effect (EC50) in test [2] (Table 10) is 7.86 µM.
Turning to `CCOC(=O)NC(=O)COC(=O)c1c2c(nc3ccccc13)/C(=C\c1ccc(OC)cc1)CC(C)C2` (stereo not shown) [GNF-8560], the EC50 stood at 1.41 µM in test [1] (Table 9); 0.011 µM in test [2] (Table 9); 3.53 µM in test [3] (Table 9, read-out: PPAR-γ EC50). Further, in test [2], the “PPAR subtype selectivity” value is “pan-agonist”.
In the case of `O=C(Nc1ccccc1O)C1CCN(C(=O)COc2ccc(F)cc2)CC1` [GNF-5891], the EC50 in test [2] (Table 9) was 0.017 µM; in test [3] (Table 9, read-out: PPAR-γ EC50), greater than 10 µM.
For `COc1cc(CNCc2cc(C)on2)ccc1OCC(=O)Nc1ccc(Br)cc1` [GNF-6952], the EC50 in test [1] (Table 9) is 7.56 µM; in test [2] (Table 9), 0.019 µM. Further, the “PPAR subtype selectivity” value in test [2] was “agonists of PPAR-δ and PPAR-α only”.
Regarding `Cc1ccc(-c2nc(SCCCC(=O)N3CCOCC3)[nH]c2-c2ccc(C)cc2)cc1` [GNF-9820], the EC50 in test [2] (Table 9) was 0.012 µM.
With `O=C(Nc1ccccc1O)C1CCN(C(=O)c2ccc(OCC3CCCO3)cc2)CC1` (stereo not shown) [GNF-9448], the EC50 in test [1] (Table 9) is 7.06 µM; in test [2] (Table 9) it was 0.883 µM; in test [3] (Table 9, read-out: PPAR-γ EC50), 0.937 µM.
Consider `O=C(NCc1ccc(COCC(F)(F)F)cc1)c1cc(-c2ccccc2)[nH]n1` [GNF-3632], for which the values for the EC50 in test [1] (Table 9) and in test [2] (Table 9) were 5.48 µM and 0.007 µM, respectively. The “PPAR subtype selectivity” value in test [2] was “agonists of PPAR-δ and PPAR-α only”.
For the molecule `O=C(COc1ccc(C(=O)O)cc1)NC(c1ccccc1)c1ccc(Cl)cc1` (stereo not shown) [GNF-0248], the EC50 in test [1] (Table 10) came out at 7.04 µM; in test [2] (Table 10), 7.55 µM.
As for `O=C(Nc1cccc(CNCC(c2cccs2)N2CCOCC2)c1)c1ccc(Cl)cc1` (stereo not shown) [GNF-6029], a half-maximal response in test [2] (Table 9) (EC50) required 0.012 µM.
Consider `O=C(O)Cc1csc(SCc2cc(F)cc3c2OC(c2ccccc2)OC3)n1` (stereo not shown) [GNF-1051], for which the EC50 in test [1] (Table 10) came out at 7.33 µM; in test [2] (Table 10), 7.76 µM.
Turning to `O=C(CN1CCN(c2ccc(O)cc2)CC1)NCC1(N2CCOCC2)CCCCC1` [GNF-8501], in test [2] (Table 9), a half-maximal response (EC50) required 0.006 µM.
Still for that read-out and setting: under `CCOc1cccc(/C=N/c2cccc(-c3csc(/N=C/c4cccc(OCC)c4O)n3)c2)c1O` [GNF-6878] stands 0.008 µM.
`CCc1cc(C(c2cccc(OC)c2)N2CCN(CCO)CC2)c(NC(=O)c2ccccc2)s1` (stereo not shown) [GNF-5295]: the EC50 in test [1] (Table 9) was greater than 10 µM; in test [2] (Table 9), 0.013 µM; in test [3] (Table 9, read-out: PPAR-γ EC50), 7.28 µM. Besides, in test [2], the “PPAR subtype selectivity” value is “agonists of PPAR-δ and PPAR-γ only”.
